Literature values in patent publication US6589744B2, “Method and kit for identification for nucleic acid modification enzymes and inhibitors thereof” (Syngenta Participations AG, priority 2001, dated 2003).

Target: T1, T4 DNA ligase (Enterobacteria phage T4, UniProt P00970)
T1 sequence (P00970 1-487): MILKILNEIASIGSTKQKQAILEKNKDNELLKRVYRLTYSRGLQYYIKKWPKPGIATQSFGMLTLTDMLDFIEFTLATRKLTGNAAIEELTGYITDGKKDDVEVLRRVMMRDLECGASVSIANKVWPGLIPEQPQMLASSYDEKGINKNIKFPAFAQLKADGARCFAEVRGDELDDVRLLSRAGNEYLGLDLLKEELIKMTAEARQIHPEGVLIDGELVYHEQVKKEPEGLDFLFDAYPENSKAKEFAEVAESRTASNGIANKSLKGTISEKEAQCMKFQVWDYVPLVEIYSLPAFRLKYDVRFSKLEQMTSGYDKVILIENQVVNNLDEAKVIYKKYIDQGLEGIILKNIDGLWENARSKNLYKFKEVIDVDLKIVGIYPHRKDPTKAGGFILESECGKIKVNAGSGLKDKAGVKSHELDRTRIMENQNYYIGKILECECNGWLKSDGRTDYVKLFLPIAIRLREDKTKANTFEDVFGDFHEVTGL
Settings: previously determined, radiolabeled substrates and PAGE gel shift assays (Montecucco et al.)

Structure (SMILES): COc1cccc2c1C(=O)c1c(O)c3c(c(O)c1C2=O)C[C@@](O)(C(=O)CO)C[C@@H]3O[C@H]1C[C@H](N)[C@@H](O)[C@H](C)O1 [Epirubicin, epirubicin]
- IC50: 2700 nM
